SMILES strings stand for the structures. Peptide text beside a SMILES is read from it.

We go through 100 compounds from the OPERA property sets (Mansouri et al. 2018).

A word on the logP: it is the decadic logarithm of the partition coefficient of the neutral form, usually between octanol and water. High values mean higher lipophilicity, low ones lower lipophilicity. Compound `CCCCCCBr` displayed a logP of 3.8. `CC(C)(CCC(=O)O)C(=O)O`: the logP was 0.67. With `CS(=O)(=O)Nc1ccccc1`, the logP was determined as 0.95.

In turn, `CNC(=S)NCc1ccccc1` gave a logP of 1.35. The compound `C[C@]12CCC(=O)C=C1C=C[C@@H]1[C@@H]2CC[C@@]2(C)[C@H]1CC[C@@]21CCC(=O)O1` came in with a lipophilicity (logP) of 2.68. Regarding `Clc1cc(-c2ccccc2)c(Cl)c(Cl)c1Cl`, the log partition coefficient (logP) was 6.41.

Regarding `CCCc1nc2cccc(C)n2c(=O)c1CC`, the logP was 2.37. `Cc1nnc(SCC2=C(C(=O)O)N3C(=O)[C@@H](NC(=O)Cn4cnnn4)[C@H]3SC2)s1`: the logP is -0.58. For `CSCS(=O)CC(C)NC(=O)C=Cc1c(C)[nH]c(=O)[nH]c1=O` (stereo not given), the lipophilicity (logP) was -0.7. For `NS(=O)(=O)c1ccc(S(=O)(=O)CCO)s1`, the logP is -0.54. The value for `COc1c(O)cc(Cl)c(Cl)c1Cl` was 3.77; that for `O=c1cccc[nH]1` was -0.58; that for `Cc1n[nH]c(C(N)=O)c1[N+](=O)[O-]` was -0.38. The compound `CC(C)(C)C1CCN(N=O)CC1` returned a logP of 2.54. Compound `COc1ccc(C=O)cc1O` registered a logP of 0.97.

Take `CCOP(=O)(OCC)SCSCC`: the logP amounted to 2.07. The value for `O=C(O)C1CC1` was 0.63; that for `Cc1cc[nH]c(=O)n1` was -1.45. Consider `COc1ccc(CCNCC(O)COc2cccc(C)c2)cc1OC` (stereo not given), for which the log partition coefficient (logP) came out at 3. Compound `Cc1cccc(OCC(=O)O)c1` yielded a lipophilicity (logP) of 1.78.

Regarding `CC(C)(N)Cc1ccc(Cl)cc1`, the lipophilicity (logP) came out at 2.6. `Cc1ccc2c(c1)nc(N)n2C` yielded a logP of 1.47. For the compound `NS(=O)(=O)c1ccc(C(=O)c2ccncc2)cc1`, the lipophilicity (logP) was found to be 0.56. Regarding `OCC(CO)(CBr)CBr`, the logP worked out at 1.06. In the case of `CCC(C)Cl` (stereo not given), the logP is 2.33. In the case of `COc1cccc(C)c1`, the logP came out at 2.66.

As to `CCCNC(=O)c1cccnc1`, the log partition coefficient (logP) stood at 0.66.

`CNC(=O)Oc1ccc(SC)cc1` had a lipophilicity (logP) of 1.92. `OC1CCCCC1` gave a logP of 1.23. For `CCC(=O)OC1(C(=O)CCl)C(C)CC2C3CCC4=CC(=O)C=CC4(C)C3(F)C(=O)CC21C` (stereo not given), the log partition coefficient (logP) amounted to 3.46. The compound `CN(C)C(=O)N(C)N=O` had a log partition coefficient (logP) of 0.36. Compound `O=c1[nH]c2ccccc2n1C1CCN(CCCC(c2ccc(F)cc2)c2ccc(F)cc2)CC1` had a logP of 6.3. In turn, `CC(=O)Nc1ccc2c(c1)[nH]c1ccccc12` had a logP of 3.02. Consider `CCCCCC(=O)NN`, for which the logP came out at 0.48. `Cn1cnc([N+](=O)[O-])c1Sc1ncnc2nc[nH]c12`: the lipophilicity (logP) amounted to 0.1. Turning to `FCCl`, the lipophilicity (logP) was determined as 0.51. Turning to `CNC(=O)ON=Cc1ccccc1`, the log partition coefficient (logP) came to 1.49. To `NS(=O)(=O)c1cc2c(cc1Cl)NC(CC1CCCC1)NS2(=O)=O` (stereo not given) belongs 1.27. `OC(c1ccccc1)(c1cncnc1)c1ccc(Cl)cc1Cl` (stereo not given): the logP came to 2.56. `ClCCc1ccccc1` displayed a lipophilicity (logP) of 2.95.

In turn, `NC12CC3CC(CC(C3)C1)C2` registered a lipophilicity (logP) of 2.44. Compound `ClC(Cl)C(Cl)Cl` yielded a log partition coefficient (logP) of 2.39.

`CNC(=O)ON=C(C)SC` registered a log partition coefficient (logP) of 0.6. `CCN(CC)c1ccccc1` returned a logP of 3.31. In the case of `OC(c1ccccc1)C1CCCCN1` (stereo not given), the log partition coefficient (logP) amounted to 1.58. `Nc1c(S(=O)(=O)O)ccc2ccccc12` came in with a log partition coefficient (logP) of -0.97. Compound `Oc1ccc(Cl)cc1Cc1cc(Cl)ccc1O` returned a logP of 4.26. Compound `CCc1ccc(N)cc1` displayed a logP of 1.96. Compound `C=C(F)F` displayed a logP of 1.24.

For the compound `CCc1ccccc1CC`, the logP was found to be 3.72.

`CCC1C2CC3C4N(C)c5ccccc5C45CC(C2C5O)N3C1O` (stereo not given) had a logP of 1.81. Take `ClCCl`: the logP worked out at 1.25. In turn, `CC(C)[C@H](C(=O)OC(C#N)c1cccc(Oc2ccccc2)c1)c1ccc(OC(F)F)cc1` (stereo not given in full) displayed a lipophilicity (logP) of 6.2. Take `O=C(O)c1ccc(CO)cc1`: the logP was 0.93.

`ClC(Cl)(Cl)Cl` registered a lipophilicity (logP) of 2.83.

`CC(C)Nc1nc(Cl)nc(NC(C)C)n1` displayed a logP of 2.93. For `Cc1cc(NN)ncn1`, the lipophilicity (logP) was found to be 0.62. Compound `BrCCCc1ccccc1` had a logP of 3.72. To `N#Cc1cccc(C=O)c1` belongs 1.18; to `CN(C)C(N(C)C)=S(I)c1ccc(Cl)cc1` (stereo not given), -0.2; to `Nc1cc(Cl)cc(Cl)c1`, 2.9. In the case of `CNC(=S)N(C)C`, the logP came to 0.1. Turning to `CC12CC3CC(C)(C1)CC(N)(C3)C2`, the lipophilicity (logP) was 3.28. On to `Cc1ccc2[nH]c(=O)[nH]c(=O)c2c1`, for which the log partition coefficient (logP) turned out to be 0.55.

On to `OCCCc1nc2ccccc2[nH]1`, for which the logP turned out to be 1.25. Consider `N#Cc1ccc2ccccc2n1`, for which the log partition coefficient (logP) amounted to 1.6. With `FC(F)(F)Br`, the logP stood at 1.86. Compound `Cc1ccccc1OCC(=O)O` showed a log partition coefficient (logP) of 1.98. Consider `O=Cc1cccc(C(F)(F)F)c1`, for which the log partition coefficient (logP) stood at 2.47. To `CNC(=S)NC` belongs -0.24; to `ClC1=C(Cl)C(Cl)(Cl)C(Cl)=C1Cl`, 5.04; to `FC(F)F`, 0.64.

For `NC(=O)c1ccccc1C(N)=O`, the logP is -1.73. Compound `Cn1c(C=[N+](C)[O-])cnc1[N+](=O)[O-]` registered a logP of 0.04. In the case of `O=C(O)c1ccccn1`, the lipophilicity (logP) came to 0.72.

As to `CC(C)(C)C(=O)Nc1ccccc1`, the logP is 1.99.

With `COc1cc(CCN)cc(OC)c1OC`, the lipophilicity (logP) stood at 0.78. To `O=c1nc[nH]c(=O)[nH]1` belongs -1.87; to `NC(Cc1c[nH]c2cc(F)ccc12)C(=O)O` (stereo not given), -0.78; to `CCNc1nc(Cl)nc(NC(C)C)n1`, 2.61.

`ICCCI` returned a lipophilicity (logP) of 3.02.

Consider `Cc1cc(Cl)cc(Cl)c1NC1=NCCN1`, for which the lipophilicity (logP) was found to be 2.38. In turn, `O=C1CCN(c2ccccc2)N1` showed a logP of 0.89. To `COC1C(OC(C)=O)CC(=O)OC(C)CC=CC=CC(O)C(C)CC(CC=O)C1OC1OC(C)C(OC2CC(C)(O)C(OC(=O)CC(C)C)C(C)O2)C(N(C)C)C1O` (stereo not given) belongs 2.39. `CN(C)/N=N/c1ccc2n[nH]cc2c1`: the logP is 2.36. `CCCN(C)/N=N/c1ccc(C(N)=O)cc1` displayed a logP of 2.17. Compound `CN(C)C(=O)c1ccccc1O` displayed a logP of 0.44. As for `CC(=O)N[C@@H](C)C(=O)NCC(=O)N[C@@H](Cc1ccccc1)C(N)=O` (Ac-Ala-Gly-Phe-NH2), the log partition coefficient (logP) is -0.71.

For the compound `OCCc1ccccn1`, the logP came out at 0.12. On to `CC(C)c1cnc([N+](=O)[O-])n1C`, for which the lipophilicity (logP) came out at 1.09. `O=[N+]([O-])c1ccc(OC2OC(CO)C(OC3OC(CO)C(O)C(O)C3O)C(O)C2O)cc1` (stereo not given) had a logP of -1.39. `Clc1ccc(-c2cccc(Cl)c2Cl)cc1` displayed a lipophilicity (logP) of 5.42. To `FC(F)OC(Cl)C(F)(F)F` (stereo not given) belongs 2.06; to `CCOC(=O)C(Cl)(Cl)Cl`, 2.39; to `N#Cc1ccccc1`, 1.56. As for `CCn1cnc([N+](=O)[O-])n1`, the lipophilicity (logP) was -0.19. To `N[C@@H](CCC(=O)O)C(=O)O` belongs -3.69; to `Cc1cccc(C(=O)O)c1O`, 2.86; to `c1ccc(-c2csnn2)cc1`, 2.42. To `NC(=O)Cc1ccncc1` belongs -0.65.
